# Results taken from patent publication US4598077A, “Amidine derivatives and cardiotonic compositions” (Torii & Co. Ltd., priority 1983, dated 1986).
# Counter-ions that a name gives are not always drawn. Like-named read-outs stand apart in the source and are kept apart here.
# Tests used:
# [1] = test system: papillary muscle preparation; experiment: Isolated, blood-perfused papillary muscle preparation, developed tension (Table 1); parameters: species or system Mongrel dogs; details: Canis lupus familiaris, close-arterial injection, read-out: Papillary muscle preparation, % increase in developed tension; for activation at 0.03 mg: dose 30 μg; for activation at 0.1 mg: dose 100 μg; for activation at 0.3 mg: dose 300 μg
# Method: Mongrel dogs of either sex weighting 7.5-10 kg were anesthetized with sodium pentobarbital (30 mg/kg, i.v.). Each animal was given an intravenous dose of sodium heparin (500 units/kg), thereafter, the heart was removed and placed in cold Tyrode solution. The isolated and cross-circulated right atrium and papillary muscle preparations were arranged for perfusion from a donor dog as follows. The donor dog was also anesthetized with sodium pentobarbital (30 mg/kg, i.v.); heparin (500 units/kg) was given intravenously immediately before the perfusion began. (a) The isolated, blood-perfused papillary muscle preparation. The anterior septal artery was dissected and cannulated with polyethylene tubing. The tendinous end of the papillary muscle was connected to a strain-gauge transducer by a fine silk thread and the muscles were under about 2 g of resting tension. The papillary muscle preparation was electrically driven at a constant frequency of 120/min with rectangular pulses of 1-3 V and 5 msec duration. The preparation of the blood-perfused papillary muscle has been described in detail by Endoh and Hashimoto Am. J. Physiol, 218, 1459-1463 (1970). Each preparation was perfused with the arterial blood from the carotid artery of the donor dog at a constant perfusion pressure of 100 mmHg by means of a peristaltic pump. The venous effluent from the preparations was collected in a reservoir and returned to the donor dog through the jugular vein. Test compounds used in these experiments were dissolved in vehicle solution and were injected closearterially to the preparations. The effects of each compound on the developed tension and sinuo rate were evaluated as a percentage change in values determined before and after administration of the compound. In Table 1 are shown such changes in terms of the percentage increase after administration.
# [2] = test system: right atrium preparation; experiment: Isolated, blood-perfused right atrium preparation, sinus rate (Table 1); parameters: species or system Mongrel dogs; details: Canis lupus familiaris, close-arterial injection, read-out: Right atrium preparation; for activation at 0.03 mg: dose 30 μg; for activation at 0.03 mg / activation at 0.1 mg / activation at 0.3 mg: % increase in sinus rate; for activation at 0.1 mg / inhibition at 0.1 mg: dose 100 μg
# Method: Mongrel dogs of either sex weighting 7.5-10 kg were anesthetized with sodium pentobarbital (30 mg/kg, i.v.). Each animal was given an intravenous dose of sodium heparin (500 units/kg), thereafter, the heart was removed and placed in cold Tyrode solution. The isolated and cross-circulated right atrium and papillary muscle preparations were arranged for perfusion from a donor dog as follows. The donor dog was also anesthetized with sodium pentobarbital (30 mg/kg, i.v.); heparin (500 units/kg) was given intravenously immediately before the perfusion began. (b) The isolated, blood-perfused right atrium preparation. The sinus node artery was cannulated at its origin in the right coronary artery. A right atrial electrogram was obtained from bipolar electrodes which were placed in close proximity to the sinoatrial node. The sinus rate was recorded by a cardiotachometer triggered by the right atrial electrogram. The details of the bloodperfused right atrium preparation have been described by Chiba et al. (Tohoku J. exp. Med., 107, 101-102 (1972) and Kubota and Hashimoto (Naunyn-Schmiedeberg's Arch. Pharmacol., 278, 135-150 (1973)). Each preparation was perfused with the arterial blood from the carotid artery of the donor dog at a constant perfusion pressure of 100 mmHg by means of a peristaltic pump. The venous effluent from the preparations was collected in a reservoir and returned to the donor dog through the jugular vein. Test compounds used in these experiments were dissolved in vehicle solution and were injected closearterially to the preparations. The effects of each compound on the developed tension and sinuo rate were evaluated as a percentage change in values determined before and after administration of the compound. In Table 1 are shown such changes in terms of the percentage increase after administration.
# [3] = test system: anesthetized open-chest dogs; experiment: Cardiovascular effect in anesthetized open-chest dogs (Table 2); assay type: in vivo, Mongrel dogs; details: femoral vein; for change in vivo at 0.03 mg/kg / change in vivo at 0.1 mg/kg / change in vivo at 0.3 mg/kg: Canis lupus familiaris, iv
# Method: Mongrel dogs of either sex weighing 9-15 kg were anesthetized with sodium pentobarbital (30 mg/kg, i.v.). The heart was exposed by thoractomy by the left fifth intercostal incision under artificial respiration. Aortic flow was measured by the probe of electromagnetic flowmeter placed around the ascending aorta. Myocardial contractility was measured by the maximal rate of rise of left ventricular pressure which was recorded from a needle inserted into the ventricular cavity. The systemic blood pressure was measured with a pressure transducer by means of a polyethylene cannular inserted into the femoral artery. The heart rate was recorded by a cardiotrachometer triggered by R wave of electrocargiogram (Lead II). Test compounds were dissolved in vehicle solution and were injected into the femoral vein. The effects of each compound on the cardiac contractility and aortic flow were evaluated as a percentage change in values determined before and after administration of the compound. In Table 2 are shown such changes in terms of the percentage increase after administration.
# [4] = Toxicity (LD50); details: in vivo, iv; mouse; I.V.
# [5] = 0.03 mg/kg, read-out: Increase in aortic flow (%)
# [6] = 0.03 mg/kg, read-out: Increase in cardiac contractility (%)
# [7] = read-out: Increase in aortic flow (%)
# [8] = read-out: Increase in cardiac contractility (%)
# [9] = 0.3 mg/kg, read-out: Increase in aortic flow (%)
# [10] = 0.3 mg/kg, read-out: Increase in cardiac contractility (%)
# [11] = % decrease in sinus rate (in parentheses)
Structure (SMILES),activation at 0.03 mg [1] [%],activation at 0.1 mg [1] [%],activation at 0.03 mg [2] [%],activation at 0.1 mg [2] [%],"change in vivo at 0.03 mg/kg [3, 5] [%]","change in vivo at 0.03 mg/kg [3, 6] [%]","change in vivo at 0.1 mg/kg [3, 7] [%]","change in vivo at 0.1 mg/kg [3, 8] [%]",LD50 [4] [mg/kg],"change in vivo at 0.3 mg/kg [3, 9] [%]","change in vivo at 0.3 mg/kg [3, 10] [%]",activation at 0.3 mg [1] [%],"inhibition at 0.1 mg [2, 11] [%]","inhibition at 0.3 mg ([2]; dose 300 μg, % decrease in sinus rate (in parentheses)) [%]",activation at 0.3 mg ([2]; dose 300 μg) [%],% decrease in aortic flow (in parentheses) ([3]; 0.3 mg/kg) [%],% decrease in cardiac contractility (in parentheses) ([3]; 0.3 mg/kg) [%],% decrease in aortic flow (in parentheses) ([3]; 0.03 mg/kg) [%],% decrease in cardiac contractility (in parentheses) ([3]; 0.03 mg/kg) [%]
"Cl.Cl.N=C(N)c1ccc(CCc2ccc(CN)cc2)cc1 [Compound 2, 4-[2-(4-Aminomethylphenyl)ethyl]benzamidine dihydrochloride]",63.8,104,10.7,21.8,5,7.1,16.1,25,40,–,–,–,–,–,–,–,–,–,–
"Cl.Cl.N=C(NCCc1ccccc1)c1ccc(CCc2ccc(CN)cc2)cc1 [Compound 5, 4-[2-(4-Aminomethylphenyl)ethyl]-N-(2-phenylethyl)benzamidine dihydrochloride]",33.3,53.5,16,17.7,–,–,5,12.9,57.7,19.2,38.9,–,–,–,–,–,–,–,–
"CC(=O)O.CC(=O)O.N=C(N)c1ccc(OCc2ccc(CN)cc2)cc1 [Compound 8, 4-(4-aminomethylbenzyloxy)benzamidine diacetate]",–,20.7,–,2.2,–,–,6.1,0,57.7,9.5,16.7,44.8,7.7,9.7,7.5,–,–,–,–
"CN=C(NC)c1ccc(CCc2ccc(CN)cc2[N+](=O)[O-])cc1.Cl.Cl [Compound 18, 4-[2-(4-Aminomethyl-2-nitrophenyl)ethyl]-N,N'-dimethylbenzamidine dihydrochloride]",–,64,–,14,–,–,14.3,59.3,–,23.7,155,86.5,1.8,–,34.8,-5.3,–,–,–
"COc1cc(CN)ccc1CCc1ccc(C(=N)NCCc2ccccn2)cc1.Cl.Cl.Cl [Compound 19, 4-[2-(4-Aminomethyl-2-methoxyphenyl)ethyl]-N-[2-(2-pyridyl)ethyl]benzamidine trihydrochloride]",–,72.4,–,21.9,–,–,9.2,20,–,11.9,129,108,–,–,35.8,-1.2,-7.1,–,–
"COc1cc(CN)ccc1CCc1ccc(C2=NCCN2)cc1 [Compound 20, 2-{4-[2-(4-Aminomethyl-2-methoxyphenyl)ethyl]phenyl}imidazoline dihydrochloride]",–,72.2,–,26.8,7.9,78.6,–,–,–,–,–,104,–,–,45.7,–,–,-1.1,-7.8
